A melting point compilation (Tetko et al.)

SMILES	melting point [°C]
Cc1nc(-c2ccc(S(=O)(=O)Cl)s2)cs1	88 to 90
Cc1cc(-c2ccc(N=C=O)c(C)c2)ccc1N=C=O	71
OCc1cccc2c1OCCO2	54 to 55
Cc1cc(C(=O)O)ccc1Cl	216 to 218
COc1ccc(N=[N+]([O-])c2ccc(OC)cc2)cc1	132
O=[N+]([O-])c1ccccc1-c1nc(-c2ccccc2)c(-c2ccccc2)[nH]1	235 to 238
N#Cc1ccc(OCc2ccc3nonc3c2)cc1	160 to 162
COc1ccc(C2(C(=O)O)CC2)cc1	127 to 132
Cc1noc(C)c1C(=O)O	141 to 142
CC1C=C(CO)N=N1 (centres undefined)	79
OCCNC1CCCCC1	36
CC(C=CC=C(C)C=CC1=C(C)CC(O)CC1(C)C)=CC=CC=C(C)C=CC=C(C)C1C=C2C(C)(C)CC(O)CC2(C)O1 (centres undefined)	184
O=C(c1cccs1)c1noc(-c2ccc3ccccc3c2)c1S(=O)(=O)c1ccccc1	128
Cc1cc(C(F)(F)F)cc(NN)n1	79 to 81
COC(=O)CC(=O)CCl	14 to 16
Cc1cncc(C(=O)O)c1	212
O=C(O)[C@H](O)[C@@H](O)[C@H](O)[C@H](O)CO	131
Cc1nc(O)nc(O)c1C	297 to 300
Cc1c(C)c([N+](=O)[O-])c(C)c2c1C(=O)C2	164
CCCN(CCC)C(=O)Cc1c(-c2ccc(Cl)cc2)nc2ccc(Cl)cn12	140
Cn1cc(Br)c(CO)n1	94 to 95
O=CN(C=O)C=O	100 to 101
Cc1ccc(N)cc1I	36
CCC(C)I (centres undefined)	-104

SMILES	melting point [°C]
O=S(=O)(N(c1ccc(Cl)cn1)S(=O)(=O)C(F)(F)F)C(F)(F)F	46
Nc1cccc(S(N)(=O)=O)c1	141
CCCCCCCCOC(=O)CCCCCC	-22.5
CCCc1c(C(=O)OCC)cnn1-c1ccc(Cl)cc1	63 to 65
CCCCC(CC)CNCC(CC)CCCC (centres undefined)	-60
CC(C)(C)OC(=O)N1CCN(c2ccc(I)cc2)CC1	150 to 151
Nc1cc2[nH]c(=O)c(C(=O)c3ccccc3)cc2cc1C=O	278 to 279
CC(=O)OC1(C(C)=O)CCC2C3C=C(Cl)C4=CC(=O)CCC4(C)C3CCC21C (centres undefined)	213
CC(C)COC(=O)c1ccccc1O	5.9
C(COCCOCC1CO1)OCCOCC1CO1 (centres undefined)	-13
c1ccc(-c2ccncc2)cc1	77.5
O=C1OC(C(Cl)(Cl)Cl)Cc2ccccc21 (centres undefined)	119
COc1ccc([N+](=O)[O-])cc1C(=O)O	157
CCCC=C1C(=O)C2(C)CCC1C2(C)C (centres undefined)	120
O=C(Cn1cncn1)c1ccc(F)cc1F	105
CCCCCCOC(=O)c1ccccc1C(=O)OCCCCCC	-58
CN[C@H](CC(=O)O)C(=O)O	187 to 192
Cc1cc(C(C)(C)C)c(C)cc1O	71.2
C#CC1(O)CCC2(C)C(CCC3C4CCC(=O)C4(C)CCC32)C1 (centres undefined)	237 to 238
Cc1cc(C)n(CN(Cn2nc(C)cc2C)c2ccc(N(Cn3nc(C)cc3C)Cn3nc(C)cc3C)cc2)n1	175
O=S(=O)(Cl)c1cc(Cl)cc(Cl)c1	53 to 57
OCc1cccc(C(F)(F)F)c1Cl	76
FC(F)(F)c1nn2c(=S)nc(-c3ccccc3)nc2s1	222
C=Cc1ccccc1[N+](=O)[O-]	13

SMILES	melting point [°C]
O=C(Cl)c1csc(Cc2c(Cl)cccc2Cl)n1	104
CC(=C/C=N/NC(N)=O)C(C)(C)C	148
COc1ccccc1-c1nnc2n1NC(c1ccccc1OC)S2 (centres undefined)	173
Cn1ccc2c(CO)cccc21	69 to 71
N#CCc1ccc(Cl)cc1Cl	60 to 63
COC(=O)c1ccc(I)cc1O	69
CC(OCc1ccccc1)C(NC(=O)OC(C)(C)C)C(=O)O (centres undefined)	116
Cc1ccc(-n2c(=O)cc(C)n2C)cc1	130 to 137
N#Cc1c(S)nc2c(c1C(F)(F)F)CCCC2	216 to 220
CSC(Cl)=NS(=O)(=O)c1ccc(C)cc1	90 to 91
O=[N+]([O-])c1cnc(Br)s1	88
O=[N+]([O-])c1ccc(Oc2c(Cl)cccc2Cl)c(Cl)c1	136 to 138
Cc1ncccn1	-4
O=C(N[C@@H](Cc1ccccc1)C(=O)O)OCC1c2ccccc2-c2ccccc21	183 to 187
Cc1ccc(C=C(C#N)C#N)cc1	132 to 133
CCc1ccc(C(C)=O)cc1	-20.6
Nc1nc(-c2cccc3ccccc23)cs1	157
Cc1nc(Cl)nc(N)c1N	249 to 252
Cc1ccc(NC(=O)C(F)(F)C(F)(F)C(F)(F)C(F)(F)C(F)(F)C(F)(F)C(F)(F)C(F)(F)F)c(C)c1	83
COc1ccc(C/C(=N\O)C(=O)O)cc1	159
CCOC(=O)c1csc(Cn2cnc(Cl)c2Cl)n1	126 to 129
Clc1cccc(Cl)c1CBr	56
CC(=O)CCc1oc2ccc(NC(C)=O)cc2c1-c1ccc(C)o1	131 to 132
CC(C)C(C)C(=O)O (centres undefined)	-1.5

SMILES	melting point [°C]
COc1ccc2c(-c3ccccc3)c(-c3ccccc3)[nH]c2c1	210 to 214
CCC1(CC)C(=O)NC(=O)NC1=O	190
O=C1OCCC1N(C(=O)C1CC1)c1cccc(Cl)c1 (centres undefined)	95
N#CC(C(=O)N1CCOCC1)=C(SCc1ccccc1)SCc1ccccc1	123
c1ccc(N(c2ccccc2)c2ccccc2)cc1	127
O=P(OCC(Br)CBr)(OCC(Br)CBr)OCC(Br)CBr (centres undefined)	5.5
c1ccc2c(c1)-c1ccc3ccc4cccc5cc-2c1c3c45	164
CC(=O)c1ccc(C(C)=O)cc1	112
C=COCCCl	-70
COC(=O)C=Cc1ccc(O)c(OC)c1	64
Cc1nc(-c2ccc(Br)cc2)cs1	130 to 135
Nn1c(S(=O)(=O)O)nc2ccccc21	252 to 253
CCOC(=O)CCC(C)C1CCC2C3C(=O)CC4CC(=O)CCC4(C)C3CC(=O)C12C (centres undefined)	222
OC1C(C2COC3(CCCCC3)O2)OC2OC3(CCCCC3)OC21 (centres undefined)	129 to 135
NC(=O)CCCCC(N)=O	226
Nc1ccccc1Cl	-3
CN(C)CCCN1c2ccccc2Sc2ccccc21	33
CC1(C)OC(=O)C2CCCCC21 (centres undefined)	80
C#CCCCCCCCCCCCCC	10
O=[N+]([O-])c1cccc(OCCN2CCOCC2)c1	50 to 53
CC(=O)c1c(-c2cccc(Cl)c2Cl)noc1C	62 to 64
O=C(CCCCl)c1ccc(Cl)cc1	30
